Values joined by “and” are separate entries in the source; they are usually repeats but may differ in a detail not shown here. Equal entries are not always repeated. Where two headings read alike, the source gives them in different places.
Experiments:
5-HT2A = conditions: ref Johnson et al., 1994, cited from earlier work; for Ki: human 5-HT2A receptor vs. [^3H] ketanserin
male C57BL/6J mice [1] = test: Head-twitch response; format: in vivo, mouse; conditions: for HTR induced by ALD-52 after M100,907 pretreatment: 0.1 mg/kg M100,907 SC pretreatment, then 0.3 mg/kg ALD-52; for HTR Counts (mean ± SEM): 30 min session; for ED50: Mus musculus
mice = conditions: quantal scoring; ref Corne and Pickering (1967); cited from earlier work
human 5-HT2A receptor = human 5-HT2A receptor (Homo sapiens, UniProt P28223); test: Competitive radioligand binding
human 5-HT2A (h5-HT2A) = human 5-HT2A (h5-HT2A) (Homo sapiens, UniProt P28223); test: Gq-mediated calcium flux in Flp-In T-REx 293 cells; format: cell-based; conditions: for EC50: Ca^2+ flux; for Emax % 5-HT: percent 5-HT maximum response
human 5-HT1A receptor = molecular target: T1, human 5-HT1A receptor (Homo sapiens, UniProt P08908); test: Competitive radioligand binding; conditions: for fold lower affinity than LSD for the 5-HT1A receptor: human 5-HT1A, relative to LSD
T1 sequence (P08908 1-422): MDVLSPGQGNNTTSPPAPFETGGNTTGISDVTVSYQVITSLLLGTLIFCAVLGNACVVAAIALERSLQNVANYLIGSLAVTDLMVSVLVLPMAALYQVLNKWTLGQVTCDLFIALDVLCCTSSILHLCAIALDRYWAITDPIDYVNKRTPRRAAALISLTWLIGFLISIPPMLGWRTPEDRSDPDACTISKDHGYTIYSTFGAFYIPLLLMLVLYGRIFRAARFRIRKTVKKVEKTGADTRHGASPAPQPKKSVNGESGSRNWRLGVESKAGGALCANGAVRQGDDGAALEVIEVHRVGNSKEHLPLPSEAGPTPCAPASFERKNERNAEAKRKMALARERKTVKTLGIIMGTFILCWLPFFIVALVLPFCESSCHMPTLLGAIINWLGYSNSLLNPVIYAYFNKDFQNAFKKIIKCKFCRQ

mouse 5-HT2A (m5-HT2A) = mouse 5-HT2A (m5-HT2A) (Mus musculus, UniProt P35363); test: Gq-mediated calcium flux in Flp-In T-REx 293 cells; format: cell-based; conditions: for Emax % 5-HT: percent 5-HT maximum response
human 5-HT2B (h5-HT2B) = human 5-HT2B (h5-HT2B) (Homo sapiens, UniProt P41595); test: Gq-mediated calcium flux in Flp-In T-REx 293 cells; format: cell-based; conditions: for agonist activity: Ca^2+ flux
human subjects = conditions: humans, cited from earlier work; for active doses: ref Rothlin (1957)
[2] = molecular target: T2, human 5-HT2C INI (h5-HT2C) (Homo sapiens, UniProt P28335); format: cell-based
T2 sequence (P28335 33-458): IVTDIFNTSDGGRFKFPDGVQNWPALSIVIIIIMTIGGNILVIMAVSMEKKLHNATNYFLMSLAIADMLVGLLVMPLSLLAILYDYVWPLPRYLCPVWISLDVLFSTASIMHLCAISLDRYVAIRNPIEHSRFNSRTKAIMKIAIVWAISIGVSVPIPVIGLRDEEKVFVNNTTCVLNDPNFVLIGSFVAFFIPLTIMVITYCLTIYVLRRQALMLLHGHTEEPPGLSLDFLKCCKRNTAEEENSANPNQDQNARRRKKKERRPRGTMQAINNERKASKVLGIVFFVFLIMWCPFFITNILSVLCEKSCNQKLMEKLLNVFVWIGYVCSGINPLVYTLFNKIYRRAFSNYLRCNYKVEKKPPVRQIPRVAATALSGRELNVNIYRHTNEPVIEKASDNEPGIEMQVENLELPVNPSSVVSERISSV

human 5-HT2C receptor = molecular target: T3, human 5-HT2C receptor (Homo sapiens, UniProt P28335); test: biochemical; format: binding
T3 sequence (P28335 33-458): T2 sequence (P28335 33-458)

[3] = cited from earlier work
male C57BL/6J mice [4] = conditions: HTR, cited from earlier work; for ED50 μg/kg (95% CI): hemitartrate (2:1) salt
α1A = α1A (Homo sapiens, UniProt P35348); test: Competitive radioligand binding
5-HT6 = 5-HT6 (Homo sapiens, UniProt P50406); test: Competitive radioligand binding
β1 = β1 (Homo sapiens, UniProt P08588); test: Competitive radioligand binding; set-up: species or system Human (heart)
D3 = D3 (Homo sapiens, UniProt P35462); test: Competitive radioligand binding
5-HT1D = 5-HT1D (Homo sapiens, UniProt P28221); test: Competitive radioligand binding
α1B = α1B (Homo sapiens, UniProt P35368); test: Competitive radioligand binding
5-HT2B = 5-HT2B (Homo sapiens, UniProt P41595); test: Competitive radioligand binding
D1 = D1 (Homo sapiens, UniProt P21728); test: Competitive radioligand binding
H4 = H4 (Homo sapiens, UniProt Q9H3N8); test: Competitive radioligand binding
α2A = α2A (Homo sapiens, UniProt P08913); test: Competitive radioligand binding
α1D = α1D (Homo sapiens, UniProt P25100); test: Competitive radioligand binding
H3 = H3 (Cavia porcellus, UniProt Q9JI35); test: Competitive radioligand binding; set-up: species or system Guinea pig
H2 = H2 (Homo sapiens, UniProt P25021); test: Competitive radioligand binding
β2 = β2 (Homo sapiens, UniProt P07550); test: Competitive radioligand binding
D2 = D2 (Homo sapiens, UniProt P14416); test: Competitive radioligand binding
α2C = α2C (Homo sapiens, UniProt P18825); test: Competitive radioligand binding
D4 = D4 (Homo sapiens, UniProt P21917); test: Competitive radioligand binding
β3 = β3 (Homo sapiens, UniProt P13945); test: Competitive radioligand binding
5-HT1B = 5-HT1B (Homo sapiens, UniProt P28222); test: Competitive radioligand binding
D5 = D5 (Homo sapiens, UniProt P21918); test: Competitive radioligand binding
5-HT7A = 5-HT7A (Homo sapiens, UniProt P34969); test: Competitive radioligand binding
α2B = α2B (Homo sapiens, UniProt P18089); test: Competitive radioligand binding
H1 = H1 (Homo sapiens, UniProt P35367); test: Competitive radioligand binding
5-HT5a = 5-HT5a (Homo sapiens, UniProt P47898); test: Competitive radioligand binding
[5] = ref Halberstadt and Geyer (2013)

mouse 5-HT2A (m5-HT2A), sequence (P35363 whole entry): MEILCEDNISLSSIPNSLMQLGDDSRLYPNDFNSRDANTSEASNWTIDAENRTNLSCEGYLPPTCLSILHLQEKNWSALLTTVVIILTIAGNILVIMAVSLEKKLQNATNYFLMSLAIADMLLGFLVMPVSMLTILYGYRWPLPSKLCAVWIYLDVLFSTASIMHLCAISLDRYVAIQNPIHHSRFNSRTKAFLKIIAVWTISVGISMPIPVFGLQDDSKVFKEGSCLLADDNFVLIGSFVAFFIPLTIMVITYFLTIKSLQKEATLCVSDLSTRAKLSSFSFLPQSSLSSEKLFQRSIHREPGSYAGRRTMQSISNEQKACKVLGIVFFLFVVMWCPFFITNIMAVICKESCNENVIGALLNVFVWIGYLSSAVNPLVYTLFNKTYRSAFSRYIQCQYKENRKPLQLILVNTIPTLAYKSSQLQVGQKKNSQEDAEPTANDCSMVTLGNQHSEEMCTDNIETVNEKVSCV
human 5-HT2B (h5-HT2B), sequence (P41595 whole entry): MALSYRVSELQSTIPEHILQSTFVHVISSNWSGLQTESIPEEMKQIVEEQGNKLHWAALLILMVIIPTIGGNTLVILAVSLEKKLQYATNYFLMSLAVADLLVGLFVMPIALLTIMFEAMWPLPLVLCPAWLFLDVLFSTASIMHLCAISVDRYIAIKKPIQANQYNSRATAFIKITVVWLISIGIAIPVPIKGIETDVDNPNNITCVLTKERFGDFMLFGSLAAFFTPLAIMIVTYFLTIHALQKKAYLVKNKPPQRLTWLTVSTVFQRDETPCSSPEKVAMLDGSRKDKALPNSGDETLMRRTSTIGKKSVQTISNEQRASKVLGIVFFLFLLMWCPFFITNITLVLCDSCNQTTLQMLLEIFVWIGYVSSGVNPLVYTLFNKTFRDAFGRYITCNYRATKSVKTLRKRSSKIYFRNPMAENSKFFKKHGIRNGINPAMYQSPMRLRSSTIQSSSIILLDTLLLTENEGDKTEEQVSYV
human 5-HT2A receptor, sequence (P28223 whole entry): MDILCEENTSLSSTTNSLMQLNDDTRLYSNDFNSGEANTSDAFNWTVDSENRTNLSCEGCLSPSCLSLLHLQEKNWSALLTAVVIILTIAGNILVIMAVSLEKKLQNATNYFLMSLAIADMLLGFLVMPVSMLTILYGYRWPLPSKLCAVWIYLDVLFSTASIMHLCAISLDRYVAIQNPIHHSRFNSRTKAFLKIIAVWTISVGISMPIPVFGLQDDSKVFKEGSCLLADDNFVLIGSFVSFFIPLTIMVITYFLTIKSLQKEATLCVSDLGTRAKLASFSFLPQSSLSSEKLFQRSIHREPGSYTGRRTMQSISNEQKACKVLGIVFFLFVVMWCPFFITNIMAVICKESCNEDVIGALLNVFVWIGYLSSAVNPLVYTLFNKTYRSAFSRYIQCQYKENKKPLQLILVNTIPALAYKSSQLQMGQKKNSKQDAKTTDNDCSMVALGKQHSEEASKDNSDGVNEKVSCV
human 5-HT2A (h5-HT2A), sequence (P28223 whole entry): as above
α1B, sequence (P35368 whole entry): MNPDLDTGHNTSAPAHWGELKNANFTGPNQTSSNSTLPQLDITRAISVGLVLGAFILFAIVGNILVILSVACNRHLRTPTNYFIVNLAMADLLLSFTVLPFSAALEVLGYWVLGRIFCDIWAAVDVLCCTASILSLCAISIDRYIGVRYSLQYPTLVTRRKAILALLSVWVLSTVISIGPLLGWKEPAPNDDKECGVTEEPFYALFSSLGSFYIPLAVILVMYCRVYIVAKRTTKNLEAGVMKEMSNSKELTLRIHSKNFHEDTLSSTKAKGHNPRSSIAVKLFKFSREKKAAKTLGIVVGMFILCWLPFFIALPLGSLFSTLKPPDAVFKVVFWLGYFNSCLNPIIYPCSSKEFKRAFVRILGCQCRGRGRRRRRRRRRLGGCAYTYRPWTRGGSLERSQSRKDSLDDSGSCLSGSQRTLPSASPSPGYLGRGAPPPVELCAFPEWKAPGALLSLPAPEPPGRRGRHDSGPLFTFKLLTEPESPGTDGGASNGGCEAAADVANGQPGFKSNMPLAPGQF
β2, sequence (P07550 whole entry): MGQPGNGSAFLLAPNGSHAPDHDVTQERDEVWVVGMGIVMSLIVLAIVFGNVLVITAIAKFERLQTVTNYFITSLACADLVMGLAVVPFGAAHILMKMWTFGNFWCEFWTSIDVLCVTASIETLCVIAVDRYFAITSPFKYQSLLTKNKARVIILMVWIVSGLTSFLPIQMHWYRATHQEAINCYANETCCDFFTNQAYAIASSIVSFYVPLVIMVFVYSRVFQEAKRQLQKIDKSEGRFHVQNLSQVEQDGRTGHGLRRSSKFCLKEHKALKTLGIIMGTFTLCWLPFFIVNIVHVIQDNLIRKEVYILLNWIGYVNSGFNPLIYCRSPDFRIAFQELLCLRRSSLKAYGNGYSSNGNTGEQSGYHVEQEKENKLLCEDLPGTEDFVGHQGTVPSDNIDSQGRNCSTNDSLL
α2B, sequence (P18089 whole entry): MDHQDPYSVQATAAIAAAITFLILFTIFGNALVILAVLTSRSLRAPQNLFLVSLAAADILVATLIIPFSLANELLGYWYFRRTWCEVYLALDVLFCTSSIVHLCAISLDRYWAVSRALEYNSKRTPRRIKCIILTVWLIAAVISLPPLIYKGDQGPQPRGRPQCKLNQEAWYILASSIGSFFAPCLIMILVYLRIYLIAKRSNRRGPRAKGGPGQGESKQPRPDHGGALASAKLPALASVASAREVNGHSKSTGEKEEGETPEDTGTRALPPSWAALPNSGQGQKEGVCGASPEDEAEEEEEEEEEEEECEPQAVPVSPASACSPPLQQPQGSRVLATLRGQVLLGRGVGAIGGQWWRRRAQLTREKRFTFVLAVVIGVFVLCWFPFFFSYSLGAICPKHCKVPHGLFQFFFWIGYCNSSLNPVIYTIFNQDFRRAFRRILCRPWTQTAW
H1, sequence (P35367 whole entry): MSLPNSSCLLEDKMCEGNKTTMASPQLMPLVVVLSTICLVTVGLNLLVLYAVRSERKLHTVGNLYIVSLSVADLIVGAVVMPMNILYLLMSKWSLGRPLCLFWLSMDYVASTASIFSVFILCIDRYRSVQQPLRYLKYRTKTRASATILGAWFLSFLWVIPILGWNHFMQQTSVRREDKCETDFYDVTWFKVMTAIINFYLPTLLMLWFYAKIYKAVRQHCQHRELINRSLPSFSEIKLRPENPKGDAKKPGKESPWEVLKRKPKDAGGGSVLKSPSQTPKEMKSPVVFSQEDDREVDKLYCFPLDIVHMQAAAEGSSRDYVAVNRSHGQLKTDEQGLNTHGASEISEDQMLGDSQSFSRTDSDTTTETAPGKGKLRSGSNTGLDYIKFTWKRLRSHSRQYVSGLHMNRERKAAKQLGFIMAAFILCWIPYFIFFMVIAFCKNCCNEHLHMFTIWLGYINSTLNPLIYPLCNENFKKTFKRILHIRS
α2C, sequence (P18825 whole entry): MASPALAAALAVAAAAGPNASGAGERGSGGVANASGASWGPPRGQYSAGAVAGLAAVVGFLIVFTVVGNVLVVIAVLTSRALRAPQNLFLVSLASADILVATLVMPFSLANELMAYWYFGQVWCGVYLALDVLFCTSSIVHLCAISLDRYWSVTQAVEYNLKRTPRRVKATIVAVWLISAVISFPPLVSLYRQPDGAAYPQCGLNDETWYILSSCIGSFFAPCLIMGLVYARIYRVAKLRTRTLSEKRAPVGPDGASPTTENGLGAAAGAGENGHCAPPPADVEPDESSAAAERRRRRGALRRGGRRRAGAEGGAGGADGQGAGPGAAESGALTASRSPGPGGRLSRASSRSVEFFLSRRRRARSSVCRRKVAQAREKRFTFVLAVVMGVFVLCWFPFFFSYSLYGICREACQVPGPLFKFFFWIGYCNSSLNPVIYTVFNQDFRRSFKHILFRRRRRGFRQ
β1, sequence (P08588 whole entry): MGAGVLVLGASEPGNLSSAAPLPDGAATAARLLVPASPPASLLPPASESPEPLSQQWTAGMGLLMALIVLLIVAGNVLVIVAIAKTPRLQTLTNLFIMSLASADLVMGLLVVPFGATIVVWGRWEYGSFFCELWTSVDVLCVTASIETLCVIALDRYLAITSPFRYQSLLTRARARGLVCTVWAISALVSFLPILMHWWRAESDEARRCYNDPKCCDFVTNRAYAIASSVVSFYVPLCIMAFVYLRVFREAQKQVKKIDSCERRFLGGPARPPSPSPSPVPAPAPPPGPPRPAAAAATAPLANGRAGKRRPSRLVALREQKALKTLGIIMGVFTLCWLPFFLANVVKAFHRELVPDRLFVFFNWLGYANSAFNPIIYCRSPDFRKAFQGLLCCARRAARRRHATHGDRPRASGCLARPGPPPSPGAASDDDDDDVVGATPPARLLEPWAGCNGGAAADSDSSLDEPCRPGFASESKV
5-HT2B, sequence (P41595 whole entry): as the sequence (P41595 whole entry) above

## CC(C)n1cc2c3c(cccc31)[C@H]1C[C@@H](C(=O)NC3CCCCC3)CN(C)[C@@H]1C2 [amersergide]
5-HT2A
  Ki: 0.0162 µM
5-HT2A; human 5-HT2A receptor
  fold lower affinity than LY193525: ~ 20 fold

## COc1cccc([C@H](O)C2CCN(CCc3ccc(F)cc3)CC2)c1OC [M100,907, reference compound]
Male C57BL/6J mice [1]
  HTR induced by ALD-52 after M100,907 pretreatment: blocked

## CCN(CC)C(=O)[C@@H]1C=C2c3cccc4c3c(cn4C(C)=O)C[C@H]2N(C)C1 [ALD-52, 1-Acetyl-D-lysergic acid diethylamide]
mice
  induction of head twitches in mice: does not induce head twitches
Human 5-HT2A receptor
  Ki: 0.174 ± 0.043 µM
Human 5-HT2A (h5-HT2A); EC50, nM
  EC50: 38 nM
Human 5-HT2A (h5-HT2A); pEC50 ± SEM
  EC50: 35.5 nM
Human 5-HT2A (h5-HT2A)
  Emax % 5-HT: 25 % 5-HT and 25 ± 2 % 5-HT
Human 5-HT1A receptor
  Ki: 1.05 µM
  fold lower affinity than LSD for the 5-HT1A receptor: 111 fold
Mouse 5-HT2A (m5-HT2A); EC50, nM, Ca^2+ flux
  EC50: 12 nM
Mouse 5-HT2A (m5-HT2A); pEC50 ± SEM, Ca^2+ flux
  EC50: 11.5 nM
Mouse 5-HT2A (m5-HT2A)
  Emax % 5-HT: 29 ± 1 % 5-HT
Human 5-HT2B (h5-HT2B)
  agonist activity: no agonist activity
Human subjects; ref Abramson (1959)
  potency relative to LSD: 91%
Human subjects; ref Isbell et al. (1959)
  potency relative to LSD: equipotent
Human subjects
  active doses: 0.0005 to 0.001 mg/kg
Male C57BL/6J mice [1]; 0.03 mg/kg IP
  HTR Counts (mean ± SEM): 8.4 ± 1.6
Male C57BL/6J mice [1]; 0.1 mg/kg IP
  HTR Counts (mean ± SEM): 12.6 ± 1.1
Male C57BL/6J mice [1]
  HTR induced by ALD-52 after M100,907 pretreatment: did not induce head twitches
Male C57BL/6J mice [1]; 0.3 mg/kg IP
  HTR Counts (mean ± SEM): 25.4 ± 3.2
Male C57BL/6J mice [1]; HTR
  Molar potency (relative to LSD): 0.45
Male C57BL/6J mice [1]; read-out: ED50 nmol/kg (95% CI)
  ED50: 297 nmol/kg
Male C57BL/6J mice [1]; read-out: ED50 μg/kg (95% CI)
  ED50: 131 µg/kg
[2]; h5-HT2C, Ca^2+ flux
  agonist activity: no agonist activity
Human 5-HT2C receptor
  Ki: 0.0102 ± 0.0035 µM

## CCN(CC)C(=O)[C@@H]1C=C2c3cccc4[nH]cc(c34)C[C@H]2N(C)C1 [LSD, D-lysergic acid diethylamide, reference compound]
Human 5-HT2A (h5-HT2A)
  Emax % 5-HT: 94 % 5-HT and 94 ± 1 % 5-HT
[3]; humans, intravenous 2 μg/kg LSD, ref Aghajanian and Bing (1964)
  peak plasma level of LSD: 9.5 ng/mL
[3]; participants who had ingested 200 μg, ref Dolder et al., 2016
  LSD in plasma: 4.5 ng/mL
Male C57BL/6J mice [4]; [5]
  ED50 μg/kg (95% CI): 52.9 (38.9–72.0) μg/kg
  ED50 nmol/kg (95% CI): 132.8 (97.6–180.7) nmol/kg
Mouse 5-HT2A (m5-HT2A); Ca^2+ flux
  EC50: 4.25 nM
  pEC50 ± SEM: 8.37 ± 0.10
Mouse 5-HT2A (m5-HT2A)
  Emax % 5-HT: 86 ± 3 % 5-HT
Human 5-HT2B (h5-HT2B); percent 5-HT maximum response, N.A. = No Activity
  Emax % 5-HT: 78 ± 2 % 5-HT
Human subjects
  active doses: 0.0005 to 0.001 mg/kg

## CN1C[C@H](C(=O)NC2CCCCC2)C[C@@H]2c3cccc4[nH]cc(c34)C[C@H]21 [LY193525]
5-HT2A
  Ki: 0.00073 µM

## CCC(=O)n1cc2c3c(cccc31)C1=C[C@@H](C(=O)N(CC)CC)CN(C)[C@@H]1C2 [1P-LSD, 1-propanoyl-D-lysergic acid diethylamide]
Human 5-HT2A receptor
  Ki: 0.196 ± 0.019 µM
Human 5-HT2A (h5-HT2A); EC50, nM
  EC50: 11 nM
Human 5-HT2A (h5-HT2A); pEC50 ± SEM
  EC50: 10.2 nM
Human 5-HT2A (h5-HT2A)
  Emax % 5-HT: 11 % 5-HT and 11 ± 1 % 5-HT
Human 5-HT1A receptor
  Ki: 0.637 ± 0.097 µM
  fold lower affinity than LSD for the 5-HT1A receptor: 67 fold
Male C57BL/6J mice [4]; ref Brandt et al. (2016)
  ED50 μg/kg (95% CI): 158.9 (65.0–388.8) μg/kg
  ED50 nmol/kg (95% CI): 349.6 (143.0–855.4) nmol/kg
  Molar potency (relative to LSD): one-third
Male C57BL/6J mice [4]; ref Brandt et al. (2016), listed as 1-Propanoyl-LSD
  Molar potency (relative to LSD): 0.38
Mouse 5-HT2A (m5-HT2A)
  Emax % 5-HT: 23 ± 1 % 5-HT
Human 5-HT2B (h5-HT2B)
  agonist activity: no agonist activity
[2]; h5-HT2C, Ca^2+ flux
  agonist activity: no agonist activity
Human 5-HT2C receptor
  Ki: 0.013 ± 0.0017 µM

## CCCC(=O)n1cc2c3c(cccc31)C1=C[C@@H](C(=O)N(CC)CC)CN(C)[C@@H]1C2 [1B-LSD, 1-butanoyl-D-lysergic acid diethylamide]
α1A
  Ki: > 10 µM
5-HT6
  Ki: 0.607 ± 0.112 µM
β1
  Ki: > 10 µM
D3
  Ki: 0.352 ± 0.064 µM
5-HT1D
  Ki: 0.295 ± 0.077 µM
α1B
  Ki: > 10 µM
Human 5-HT2A receptor
  Ki: 0.0877 ± 0.0094 µM
Human 5-HT2A (h5-HT2A); EC50, nM
  EC50: 85 nM
Human 5-HT2A (h5-HT2A)
  Emax % 5-HT: 23 % 5-HT and 23 ± 2 % 5-HT
5-HT2B
  Ki: 0.0035 ± 0.0006 µM
D1
  Ki: 1.17 µM
H4
  Ki: > 10 µM
α2A
  Ki: 0.537 ± 0.085 µM
α1D
  Ki: > 10 µM
H3
  Ki: > 10 µM
H2
  Ki: 0.842 ± 0.201 µM
β2
  Ki: > 10 µM
Human 5-HT1A receptor
  Ki: 0.345 ± 0.118 µM
  fold lower affinity than LSD for the 5-HT1A receptor: 36 fold
D2
  Ki: > 10 µM
α2C
  Ki: 0.812 ± 0.267 µM
Male C57BL/6J mice [4]; ref Brandt et al. (2019)
  ED50 μg/kg (95% CI): 457.6 (334.9–625.5) μg/kg
  ED50 nmol/kg (95% CI): 976.7 (714.8–1335) nmol/kg
Male C57BL/6J mice [4]; ref Brandt et al. (2019), listed as 1-Butanoyl-LSD
  Molar potency (relative to LSD): 0.14
Mouse 5-HT2A (m5-HT2A); EC50, nM, Ca^2+ flux
  EC50: 45 nM
Mouse 5-HT2A (m5-HT2A)
  Emax % 5-HT: 35 ± 2 % 5-HT
D4
  Ki: 2.27 µM
β3
  Ki: > 10 µM
5-HT1B
  Ki: 1.46 µM
D5
  Ki: > 10 µM
Human 5-HT2B (h5-HT2B)
  agonist activity: no agonist activity
5-HT7A
  Ki: 0.554 ± 0.158 µM
α2B
  Ki: 2.66 µM
H1
  Ki: > 10 µM
Male C57BL/6J mice [1]; HTR in mice
  HTR potency as percent of the (molar) potency of LSD: ~ 14%
[2]
  agonist activity: no agonist activity
5-HT5a
  Ki: 0.158 ± 0.042 µM
Human 5-HT2C receptor
  Ki: 0.0208 µM

Source: publication PMC9191647 (Neuropharmacology, 2019)
